For experiment [1], the target named is T1, human RORγt (Ligand Binding Domain) (Homo sapiens, UniProt P51449).
T1 construct: purchased Crelux (Planegg, Germany) batch no PC5032-1
T1 sequence (P51449 269-508 limits assumed): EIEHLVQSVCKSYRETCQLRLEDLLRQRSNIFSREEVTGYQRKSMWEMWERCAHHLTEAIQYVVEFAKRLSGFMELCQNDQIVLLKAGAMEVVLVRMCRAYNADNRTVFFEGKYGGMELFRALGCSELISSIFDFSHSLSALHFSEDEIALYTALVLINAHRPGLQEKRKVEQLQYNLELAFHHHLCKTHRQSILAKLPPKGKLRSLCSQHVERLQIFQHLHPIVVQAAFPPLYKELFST
Put plainly: Fluorescence Polarization (FP) Assay. As to conditions: 100 nM human RORγt LBD, 25 nM TAMRA probe, values are activity range bounds. The procedure, abridged: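 Binding to the RORγt ligand-binding domain was followed by FP. Displacement of a TAMRA-tagged RORγt ligand tracer (910 g/mol) was measured, with DMSO-only wells as negative control.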
For orientation: Polarisation of emitted light reports the rotation of a fluorescent probe.

Experiment [2] deals with T2, ligand binding domain of human RORγ (Homo sapiens, UniProt P51449).
T2 construct: host or cells: HEK293t
T2 sequence (P51449 269-508 limits assumed): T1 sequence (P51449 269-508 limits assumed)
Put plainly: RORγ Reporter Assay (Gal4). As to conditions: for inhibition at 1 µM: HEK-293T, 1 μM test compound, HEK293t RORγ reporter cells, 24 hour, read-out: Gal4 activity range @ 1 μM (% inhibition); for Gal4 activity range @ 0.1 μM (% inhibition): RORγ Reporter Assay (Gal4), HEK293t reporter cells, compound at 0.1 μM, values are activity range bounds. The format is cell-based. The procedure:
The activity of the compounds was evaluated using a Fluorescence Polarization (FP) Assay and, RORγ Reporter assay (also referred to as Gal4 assay). The FP assay is an in vitro assay monitoring binding within the ligand binding pocket. The RORγ and the Th17 assays (another suitable assay) are both cell-based assays monitoring functional activity of the compound assayed.
RORγ Reporter Assay (Gal4)
Cell-based RORγ functional assays were performed using a commercially available assay product (INDIGO Biosciences, State College, Pa., USA; product # IB04001). The RORγ reporter cells are HEK293t cells transfected with one vector that provides high level constitutive expression of a hybrid protein comprised of the yeast Gal4-DNA binding domain fused to the ligand binding domain of human RORγ, and a second vector comprising the firefly luciferase cDNA functionally linked to the upstream activation sequence (UAS) of yeast Gal4. A suspension of RORγ Reporter Cells was prepared using the protocol and culture medium provided in the kit product, and 100 μl of the Reporter Cell suspension was then dispensed into wells of a white, collagen-treated, 96-well assay plate. Concentrated stocks of test compounds were prepared in DMSO, then further diluted using media provided in the kit to generate ‘2×-concentration’ treatment media. 100 μl of medium for each respective treatment concentration dispensed into triplicate assay wells, thereby combining with the reporter cells. All media formulations contained 10% charcoal stripped Fetal Bovine Serum, but are otherwise proprietary to INDIGO Biosciences. Final treatment concentrations for each test compound were 1,000 nM and 100 nM, each with 0.1% residual DMSO. Separate control treatments were media supplemented with vehicle only (0.1% DMSO) to determine the constitutive level of RORγ activity in the reporter cells, and the reference inverse-agonist ursolic acid (f.c. 6,000 nM to 8.2 nM in 3-fold decrements) to establish a positive control inverse-agonist dose response. Assay plates were placed in a 37° C., 5% CO2, 85% humidity incubator for 24 hour. Treatment media were then discarded, 100 μl of luciferase detection reagent was added to each well, and relative light units (RLUs) were quantified from each assay well using a plate reading luminometer. Values of average RLU+/−standard deviation were computed for all treatment sets, followed by the calculations of fold-reduction: [Average RLUVehicle/Average RLUTest Cmpd]. Percent-reduction of RORγ activity in response to respective test compound treatments was calculated: [100*(1−[Ave RLUTest Cmpd/Ave RLUVehicle)] where the theoretical minimum reduction (0% reduction) derives from Vehicle treatment only, no treatment compound. In some aspects it may be of interest to provide compounds with selective modulation of RORγ for example compounds that are selective to RORγ over RORα, compounds that are selective for RORγ versus RORPβ, and compounds that are selective for RORγ versus BOTH RORα and RORPβ. It may also be of interest to provide compounds that are selective for RORγ versus further nuclear hormone receptors such as CAR1, FXR, GR, LXRα, LXRβ, PPARα, PXR, RARα, RXRα, TRα, VDR. It is apparent to those skilled in the art that these nuclear hormone receptors are merely examples, and that selectivity against other nuclear receptors may also be of interest. It may for example be of interest to provide compounds that modulate RORγ and one or more further nuclear hormone receptors, as well as compounds that modulate both RORγ and RORα, or RORγ and RORβ. It may also be of interest to provide compounds that modulate RORγ and BOTH RORα and RORP, as well as compounds that modulate both RORγ and one or more further nuclear hormone receptors such as CAR1, FXR, GR, LXRα, LXRβ, PPARα, PXR, RARα, RXRα, TRα, VDR. It is apparent to those skilled in the art that these nuclear hormone receptors are merely examples, and that modulation of even other nuclear receptors may also be of interest. […]
For orientation: Reporter assays use an easily measured gene product as a stand-in for the process of interest.

As a reminder, the IC50 is the point on the concentration scale where inhibition reaches its midpoint. A low value points to higher potency. In general, inhibition refers to how much of the control response was suppressed. Compound `NC(=O)Cc1ccc(CNc2ncnc(N(Cc3ccccc3)C3CC3)c2F)cc1` [Example A42, 2-[4-[[[6-[benzyl(cyclopropyl)amino]-5-fluoro-pyrimidin-4-yl]amino]methyl]phenyl]acetamide] came in with an IC50 in experiment [1] below 500 nM. Moreover, in experiment [2], the inhibition at 1 µM is above 50% and the “Gal4 activity range @ 0.1 μM (% inhibition)” value is reported as above 20 % inhibition.
In the case of `FCC1(CNc2ncnc(N(Cc3ccc(C(F)(F)F)cc3)C3CC3)c2F)CCOCC1` [Example A75, N4-cyclopropyl-5-fluoro-N6-[[4-(fluoromethyl)tetrahydropyran-4-yl]methyl]-N4-[[4-(trifluoromethyl)phenyl]methyl] pyrimidine-4,6-diamine], in experiment [1], the IC50 is below 500 nM. In addition, in experiment [2], the inhibition at 1 µM was above 80% and the “Gal4 activity range @ 0.1 μM (% inhibition)” value is reported as above 80 % inhibition.
In experiment [1], `CS(=O)(=O)c1ccc(CNc2ncnc(N(Cc3ccc(C(F)(F)F)nc3)C3CC3)c2F)cn1` [Example A110, N4-cyclopropyl-5-fluoro-N6-[(6-methylsulfonyl-3-pyridyl)methyl]-N4-[[6-(trifluoromethyl)-3-pyridyl]methyl]pyrimidine-4,6-diamine] showed an IC50 below 2000 nM. Also, in experiment [2], the inhibition at 1 µM was above 50% and the “Gal4 activity range @ 0.1 μM (% inhibition)” value was above 0 % inhibition.
With `NC(=O)Cc1ccc(CNc2ncnc(N(Cc3ccnc(C(F)(F)F)c3)C3CC3)c2F)cc1` [Example A170, 2-[4-[[[6-[cyclopropyl-[[2-(trifluoromethyl)-4-pyridyl]methyl]amino]-5-fluoro-pyrimidin-4-yl]amino]methyl]phenyl]acetamide], in experiment [1], the half-inhibitory concentration (IC50) is below 500 nM. For the same compound, in experiment [2], the inhibition at 1 µM was above 50% and the “Gal4 activity range @ 0.1 μM (% inhibition)” value is recorded as above 20 % inhibition.
Compound `COc1cccc(CN(c2ncnc(NCc3ccc(CC(N)=O)cc3)c2F)C2CC2)c1` [Example A55, 2-[4-[[[6-[cyclopropyl-[(3-methoxyphenyl)methyl]amino]-5-fluoro-pyrimidin-4-yl]amino]methyl]phenyl]acetamide] registered an IC50 in experiment [1] below 500 nM. Further, the inhibition at 1 µM in experiment [2] was above 0%.
As to `NC(=O)Cc1ccc(CNc2ncnc(N(Cc3cccc(C(F)(F)F)c3)C3CC3)c2F)cc1` [Example A101, 2-[4-[[[6-[cyclopropyl-[[3-(trifluoromethyl)phenyl]methyl]amino]-5-fluoro-pyrimidin-4-yl]amino]methyl]phenyl]acetamide], the IC50 in experiment [1] is below 500 nM. Moreover, in experiment [2], the inhibition at 1 µM was above 50% and the “Gal4 activity range @ 0.1 μM (% inhibition)” value was above 50 % inhibition.
The compound `NC(=O)Cc1ccc(CNc2ncnc(N(Cc3ccc(C(F)(F)F)nn3)C3CC3)c2F)cc1` [Example A99, 2-[4-[[[6-[cyclopropyl-[[6-(trifluoromethyl)pyridazin-3-yl]methyl]amino]-5-fluoro-pyrimidin-4-yl]amino]methyl]phenyl]acetamide] registered an IC50 in experiment [1] below 10000 nM.
On to `N#Cc1ccc(CNc2ncnc(N(Cc3ccc(C(F)(F)F)cc3)C3CC3)c2F)cc1` [Example A39, 4-[[[6-[cyclopropyl-[[4-(trifluoromethyl)phenyl]methyl]amino]-5-fluoro-pyrimidin-4-yl]amino]methyl]benzonitrile], for which the IC50 in experiment [1] is below 500 nM.
`CN(Cc1ccccc1OC(F)(F)F)c1ncnc(NCc2ccc(CC(N)=O)cc2)c1F` [Example A122, 2-[4-[[[5-fluoro-6-[methyl-[[2-(trifluoromethoxy)phenyl]methyl]amino]pyrimidin-4-yl]amino]methyl]phenyl]acetamide] yielded an IC50 in experiment [1] below 500 nM.
`O=C(O)C(CNc1ncnc(N(Cc2ccc(C(F)(F)F)cc2)C2CC2)c1F)C1CCOCC1` (centres unmarked) [Example A184, 3-[[6-[cyclopropyl-[[4-(trifluoromethyl)phenyl]methyl]amino]-5-fluoro-pyrimidin-4-yl]amino]-2-tetrahydropyran-4-yl-propanoic acid] returned an IC50 in experiment [1] below 10000 nM.
In experiment [1], `CN(Cc1cccc(-n2cccn2)c1)c1ncnc(NCC2(O)CCS(=O)(=O)CC2)c1F` [Example A140, 4-[[[5-fluoro-6-[methyl-[(3-pyrazol-1-ylphenyl)methyl]amino]pyrimidin-4-yl]amino]methyl]-1,1-dioxo-thian-4-ol] returned an IC50 below 10000 nM.
For the compound `Cc1cc(CN(c2ncnc(NCC3CCN(S(C)(=O)=O)CC3)c2F)C2CCCCC2)n(C)n1` [Example A180, N6-cyclohexyl-N6-[(2,5-dimethylpyrazol-3-yl)methyl]-5-fluoro-N4-[(1-methylsulfonyl-4-piperidyl)methyl]pyrimidine-4,6-diamine], the IC50 in experiment [1] is below 10000 nM.
The same measure, in the same setting: the result for `Cc1cnc(CNc2ncnc(N(Cc3ccc(C(F)(F)F)cc3)C3CC3)c2F)cn1` [Example A159, N4-cyclopropyl-5-fluoro-N6-[(5-methylpyrazin-2-yl)methyl]-N4-[[4-(trifluoromethyl)phenyl]methyl] pyrimidine-4,6-diamine] reads below 500 nM; that for `CN(Cc1cccc(-n2cccn2)c1)c1ncnc(NCC2CCOCC2)c1F` [Example A141, 5-fluoro-N6-methyl-N6-[(3-pyrazol-1-ylphenyl)methyl]-N4-(tetrahydropyran-4-ylmethyl)pyrimidine-4,6-diamine], below 2000 nM; that for `O=S1(=O)CCC(CNc2ncnc(N(Cc3ccc(C(F)(F)F)cc3)C3CC3)c2F)CC1` [Example A34, N6-cyclopropyl-N4-[(1,1-dioxothian-4-yl)methyl]-5-fluoro-N6-[[4-(trifluoromethyl)phenyl]methyl] pyrimidine-4,6-diamine], below 500 nM.
In turn, `NC(=O)Cc1ccc(CNc2ncnc(N(Cc3ccc(C(F)(F)F)cc3)C3CC3)c2F)nc1` [Example A177, 2-[6-[[[6-[cyclopropyl-[[4-(trifluoromethyl)phenyl]methyl]amino]-5-fluoro-pyrimidin-4-yl]amino]methyl]-3-pyridyl]acetamide] had an IC50 in experiment [1] below 2000 nM.
Take `CN(C)C(=O)C1(CNc2ncnc(N(Cc3ccc(C(F)(F)F)cc3)C3CC3)c2F)CCCC1` [Example A27, 1-[[[6-[cyclopropyl-[[4-(trifluoromethyl)phenyl]methyl]amino]-5-fluoro-pyrimidin-4-yl]amino]methyl]-N,N-dimethyl-cyclopentanecarboxamide]: the IC50 in experiment [1] was below 1000 nM.
On to `NC(=O)Cc1ccc(CNc2ncnc(N(Cc3ccc(C(F)(F)F)nc3)C3CC3)c2F)cn1` [Example A112, 2-[5-[[[6-[cyclopropyl-[[6-(trifluoromethyl)-3-pyridyl]methyl]amino]-5-fluoro-pyrimidin-4-yl]amino]methyl]-2-pyridyl]acetamide], for which, in experiment [1], the IC50 was below 2000 nM.

(Values after US10683293B2, “Optionally fused heterocyclyl-substituted derivatives of pyrimidine useful for the treatment of inflammatory, metabolic, oncologic and autoimmune diseases” (NUEVOLUTION A/S, priority 2014, dated 2020).)
